The values that follow come from paper PMC6044894 (ACS Omega, 2017).

Assay [1] addresses T1, Y4R (Homo sapiens, UniProt P50391). Description: Aequorin calcium mobilization assay on CHO-hY4-Gqi5-mtAEQ cells. Format: cell-based. To be noted: for aequorin assay intrinsic activity α: relative to 1 μM hPP (α = 1.0).
In assay [2] the target is T1, Y4R. Description: β-Arrestin 2 recruitment assay on HEK293T-ARRB2-Y4R cells. Format: cell-based. To be noted: for β-arrestin 2 assay intrinsic activity α: relative to 1 μM hPP (α = 1.0).
Another assay has as its target T2, Y1R (Homo sapiens, UniProt P25929).
T2 sequence (P25929 1-384): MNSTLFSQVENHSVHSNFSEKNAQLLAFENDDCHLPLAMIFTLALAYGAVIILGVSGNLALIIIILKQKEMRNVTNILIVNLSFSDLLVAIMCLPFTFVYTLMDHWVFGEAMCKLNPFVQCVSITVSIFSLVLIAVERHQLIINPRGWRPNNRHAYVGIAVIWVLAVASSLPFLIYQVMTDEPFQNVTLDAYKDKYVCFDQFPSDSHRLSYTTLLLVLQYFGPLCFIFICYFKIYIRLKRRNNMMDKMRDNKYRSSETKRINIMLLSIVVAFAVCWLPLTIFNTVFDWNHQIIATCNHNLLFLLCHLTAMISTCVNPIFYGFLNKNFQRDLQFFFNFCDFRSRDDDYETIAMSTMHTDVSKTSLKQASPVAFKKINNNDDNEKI
As to the kind of experiment: Radioligand competition binding assay at Y1R with 46 using MCF-7-hY1 cells. On the technique in general: Displacement assays read how much labelled ligand stays bound in the presence of the test substance.

For the next assay, the target named is T3, Y2R (Homo sapiens, UniProt P49146).
T3 sequence (P49146 1-381): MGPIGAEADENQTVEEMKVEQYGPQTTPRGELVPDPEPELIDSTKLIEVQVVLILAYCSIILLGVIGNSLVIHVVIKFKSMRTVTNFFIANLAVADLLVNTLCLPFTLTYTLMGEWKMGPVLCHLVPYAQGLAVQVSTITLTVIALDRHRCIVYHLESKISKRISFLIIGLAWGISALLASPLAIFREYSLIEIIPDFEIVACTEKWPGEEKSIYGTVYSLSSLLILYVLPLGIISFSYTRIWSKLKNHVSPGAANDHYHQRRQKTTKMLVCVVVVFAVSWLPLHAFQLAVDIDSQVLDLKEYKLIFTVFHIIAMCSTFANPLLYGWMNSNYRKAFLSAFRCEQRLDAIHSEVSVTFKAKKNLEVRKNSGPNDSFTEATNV
Format: binding.

Assay [3] has as its target T1, Y4R. As to the kind of experiment: β-Arrestin 1 recruitment assay on HEK293T-ARRB1-Y4R cells. Format: cell-based. Conditions: for β-arrestin 1 assay intrinsic activity α: relative to 1 μM hPP (α = 1.0).
The target in the next assay is T4, Y5R (Homo sapiens, UniProt Q15761).
T4 sequence (Q15761 1-445): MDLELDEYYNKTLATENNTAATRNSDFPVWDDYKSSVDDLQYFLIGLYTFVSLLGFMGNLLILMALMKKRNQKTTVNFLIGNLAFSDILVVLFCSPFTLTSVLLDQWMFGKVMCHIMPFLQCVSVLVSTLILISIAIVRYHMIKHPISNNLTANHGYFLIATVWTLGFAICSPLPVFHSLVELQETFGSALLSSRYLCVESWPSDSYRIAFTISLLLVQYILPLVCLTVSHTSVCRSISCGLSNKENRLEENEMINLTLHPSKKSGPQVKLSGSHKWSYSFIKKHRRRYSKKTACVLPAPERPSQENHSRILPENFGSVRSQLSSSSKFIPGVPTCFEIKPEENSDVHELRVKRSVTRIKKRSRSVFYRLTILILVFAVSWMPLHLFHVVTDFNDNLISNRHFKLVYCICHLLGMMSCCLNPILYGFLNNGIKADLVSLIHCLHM
Format: binding.

The target of assay [4] is T1, Y4R. Description: biochemical. Format: binding.

Numbered stars: 1 amine (or outer) side, 2 acyl side, 3 side chain; on linkers, the order of the positions; unused ones are H or OH. Bridge positions count the residues as written; N and C are the ends. Peptide text beside a SMILES is read from it. I, II: the chains in the order shown. * marks the point of attachment. Suberoyl = O=C(CCCCCCC(=O)[*:2])[*:1]; Octanoyl = CCCCCCCC(=O)* Bounds are passed on as bounds.

T1 sequence (P50391 whole entry): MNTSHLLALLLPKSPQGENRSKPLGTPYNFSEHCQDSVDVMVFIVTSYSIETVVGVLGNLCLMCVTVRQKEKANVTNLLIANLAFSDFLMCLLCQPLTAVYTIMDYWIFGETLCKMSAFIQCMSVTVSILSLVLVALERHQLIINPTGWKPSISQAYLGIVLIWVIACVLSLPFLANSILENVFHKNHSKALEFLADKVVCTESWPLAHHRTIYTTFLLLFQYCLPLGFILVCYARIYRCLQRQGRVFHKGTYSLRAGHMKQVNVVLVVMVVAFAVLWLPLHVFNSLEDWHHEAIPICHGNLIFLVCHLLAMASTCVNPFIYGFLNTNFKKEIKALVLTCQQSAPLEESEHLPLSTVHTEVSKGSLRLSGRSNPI

For `CC(C)C[C@H](NC(=O)[C@H](CCCNC(=N)N)NC(=O)[C@H](Cc1ccc(O)cc1)NC(=O)CCCCCCC(=O)N[C@@H](Cc1ccc(O)cc1)C(=O)N[C@@H](CCCNC(=N)N)C(=O)N[C@@H](CC(C)C)C(=O)N[C@@H](CCCNC(=N)N)C(=O)N[C@@H](Cc1ccc(O)cc1)C(N)=O)C(=O)N[C@@H](CCCNC(=N)N)C(=O)N[C@@H](Cc1ccc(O)cc1)C(N)=O` [Compound 2, octanedioyl-bis(Tyr-Arg-Leu-Arg-Tyr-amide), reference compound] (I: YRLRY-NH2 / II: YRLRY-NH2; linker I:N-II:N via Suberoyl), the “aequorin assay intrinsic activity α” value on Y4R [1] was determined as 0.73.
Usually EC50 stands for the concentration giving half of the maximal effect. As usually defined, the Ki is the equilibrium dissociation constant of an inhibitor or competing ligand from its target. A high value points to a looser hold on the target. As for `CCCCCCCC(=O)N[C@@H](Cc1ccc(O)cc1)C(=O)N[C@@H](CCCNC(=N)N)C(=O)N[C@@H](CC(C)C)C(=O)N[C@@H](CCCNC(=N)N)C(=O)N[C@@H](Cc1ccc(O)cc1)C(N)=O` [Compound 33, Octanoyl-Tyr-Arg-Leu-Arg-Tyr-amide Bis(hydrotrifluoroacetate)] (Octanoyl-YRLRY-NH2), the figures for the EC50 at Y4R [1], at Y4R [2] and at Y4R [3] were 2.05 ± 0.084 µM, 1.79 ± 1.07 µM and 2.2 ± 0.13 µM, respectively. Further, the “aequorin assay intrinsic activity α” value at Y4R [1] was found to be 0.44. Also, the “β-arrestin 2 assay intrinsic activity α” value on Y4R [2] was found to be 0.61. Also, the Ki at Y1R was 0.589 ± 0.12 µM; on Y2R, > 5 µM; on Y5R it was 3.44 ± 0.21 µM; at Y4R [4], 0.0569 ± 0.0053 µM. The “β-arrestin 1 assay intrinsic activity α” value on Y4R [3] came to 0.56. For the same compound, on Y4R [4] (ratio of Ki values), the “increase in Y4R affinity compared to parent compound 3” value is given as “almost six”.
In the case of `CC(=O)N[C@@H](CCCNC(=N)N)C(=O)N[C@@H](Cc1ccc(O)cc1)C(=O)N[C@@H](CCCNC(=N)N)C(=O)N[C@@H](CC(C)C)C(=O)N[C@@H](CCCNC(=N)N)C(=O)N[C@@H](Cc1ccc(O)cc1)C(N)=O` [Compound 36, Ac-Arg-Tyr-Arg-Leu-Arg-Tyr-amide Tris(hydrotrifluoroacetate)], the EC50 was 0.303 ± 0.068 µM at Y4R [1], 0.14 ± 0.045 µM on Y4R [2] and 0.187 ± 0.04 µM at Y4R [3]. For the same compound, the “aequorin assay intrinsic activity α” value on Y4R [1] was determined as 0.78. For the same compound, the “β-arrestin 2 assay intrinsic activity α” value at Y4R [2] amounted to 0.54. The Ki was 1.18 ± 0.38 µM at Y1R, > 5 µM at Y2R and > 5 µM on Y5R. Also, on Y4R [3], the “β-arrestin 1 assay intrinsic activity α” value amounted to 0.51.
With “Ac-YRLRY-NH2 [Compound 3, Ac-Tyr-Arg-Leu-Arg-Tyr-amide, reference compound]”, the Ki on Y1R, at Y2R and at Y5R was > 5 µM in each case.
